Measured values reported in ChEMBL document CHEMBL4024727, “Synthesis and antimycobacterial screening of new thiazolyl-oxazole derivatives” (Eur J Med Chem, 2017).
In brackets after ≈: the same amount, converted by molar mass.

What was measured:
Format in all cases: functional
Bacillus subtilis [1] = assay: Growth inhibition of Bacillus subtilis NCIM 2162 at 30 ug/ml measured after 12 hrs relative to control; conditions: NCIM 2162, 12 h, read-out: GI
Escherichia coli [2] = assay: Antibacterial activity against Escherichia coli NCIM 2576 measured after 8 hrs; conditions: NCIM 2576, 8 h
[3] = tested on: Mycobacterium tuberculosis; assay: Growth inhibition of Mycobacterium bovis BCG ATCC 35743 at 30 ug/ml by nitrate reductase based two-fold dilution assay relative to control; conditions: BCG str. ATCC 35743, read-out: GI
Escherichia coli [4] = assay: Growth inhibition of Escherichia coli NCIM 2576 at 10 ug/ml measured after 8 hrs relative to control; conditions: NCIM 2576, 8 h, read-out: GI
[5] = tested on: Mycobacterium tuberculosis; assay: Growth inhibition of Mycobacterium tuberculosis H37Ra ATCC 25177 at 30 ug/ml by XTT dye based two-fold dilution method relative to control; conditions: read-out: GI
Bacillus subtilis [6] = assay: Growth inhibition of Bacillus subtilis NCIM 2162 at 1 ug/ml measured after 12 hrs relative to control; conditions: NCIM 2162, 12 h, read-out: GI
[7] = tested on: Mycobacterium tuberculosis; assay: Antitubercular activity against Mycobacterium bovis BCG ATCC 35743 dormant stage by nitrate reductase based two-fold dilution assay; conditions: BCG str. ATCC 35743
Escherichia coli [8] = assay: Growth inhibition of Escherichia coli NCIM 2576 at 1 ug/ml measured after 8 hrs relative to control; conditions: NCIM 2576, 8 h, read-out: GI
Pseudomonas fluorescens [9] = assay: Antibacterial activity against Pseudomonas fluorescens NCIM 2059 measured after 8 hrs; conditions: NCIM 2059, 8 h
Bacillus subtilis [10] = assay: Growth inhibition of Bacillus subtilis NCIM 2162 at 10 ug/ml measured after 12 hrs relative to control; conditions: NCIM 2162, 12 h, read-out: GI
Staphylococcus aureus [11] = assay: Growth inhibition of Staphylococcus aureus NCIM 2602 at 1 ug/ml measured after 12 hrs relative to control; conditions: NCIM 2602, 12 h, read-out: GI
[12] = tested on: Mycobacterium tuberculosis; assay: Growth inhibition of Mycobacterium bovis BCG ATCC 35743 at 1 ug/ml by nitrate reductase based two-fold dilution assay relative to control; conditions: BCG str. ATCC 35743, read-out: GI
Escherichia coli [13] = assay: Growth inhibition of Escherichia coli NCIM 2576 at 30 ug/ml measured after 8 hrs relative to control; conditions: NCIM 2576, 8 h, read-out: GI
Pseudomonas fluorescens [14] = assay: Growth inhibition of Pseudomonas fluorescens NCIM 2059 at 30 ug/ml measured after 8 hrs relative to control; conditions: NCIM 2059, 8 h, read-out: GI
[15] = tested on: Mycobacterium tuberculosis; assay: Growth inhibition of Mycobacterium tuberculosis H37Ra ATCC 25177 at 3 ug/ml by XTT dye based two-fold dilution method relative to control; conditions: read-out: GI
[16] = tested on: Mycobacterium tuberculosis; assay: Antitubercular activity against Mycobacterium tuberculosis H37Ra ATCC 25177 dormant stage by XTT dye based two-fold dilution method
Bacillus subtilis [17] = assay: Antibacterial activity against Bacillus subtilis NCIM 2162 measured after 12 hrs; conditions: NCIM 2162, 12 h
Staphylococcus aureus [18] = assay: Growth inhibition of Staphylococcus aureus NCIM 2602 at 30 ug/ml measured after 12 hrs relative to control; conditions: NCIM 2602, 12 h, read-out: GI
Pseudomonas fluorescens [19] = assay: Growth inhibition of Pseudomonas fluorescens NCIM 2059 at 1 ug/ml measured after 8 hrs relative to control; conditions: NCIM 2059, 8 h, read-out: GI
Staphylococcus aureus [20] = assay: Antibacterial activity against Staphylococcus aureus NCIM 2602 measured after 12 hrs; conditions: NCIM 2602, 12 h
Pseudomonas fluorescens [21] = assay: Growth inhibition of Pseudomonas fluorescens NCIM 2059 at 10 ug/ml measured after 8 hrs relative to control; conditions: NCIM 2059, 8 h, read-out: GI
Staphylococcus aureus [22] = assay: Growth inhibition of Staphylococcus aureus NCIM 2602 at 10 ug/ml measured after 12 hrs relative to control; conditions: NCIM 2602, 12 h, read-out: GI
[23] = tested on: Mycobacterium tuberculosis; assay: Growth inhibition of Mycobacterium bovis BCG ATCC 35743 at 10 ug/ml by nitrate reductase based two-fold dilution assay relative to control; conditions: BCG str. ATCC 35743, read-out: GI
[24] = tested on: Mycobacterium tuberculosis; assay: Growth inhibition of Mycobacterium tuberculosis H37Ra ATCC 25177 at 10 ug/ml by XTT dye based two-fold dilution method relative to control; conditions: read-out: GI

| Structure (SMILES) | inhibition of growth at 30 µg/mL (Bacillus subtilis [1]) | MIC (Escherichia coli [2]) | inhibition of growth at 30 µg/mL [3] | inhibition of growth at 10 µg/mL (Escherichia coli [4]) | inhibition of growth at 30 µg/mL [5] | inhibition of growth at 1 µg/mL (Bacillus subtilis [6]) | IC50 [7] | MIC90 [7] | inhibition of growth at 1 µg/mL (Escherichia coli [8]) | MIC (Pseudomonas fluorescens [9]) | inhibition of growth at 10 µg/mL (Bacillus subtilis [10]) | inhibition of growth at 1 µg/mL (Staphylococcus aureus [11]) | inhibition of growth at 30 µg/mL (Escherichia coli [13]) | inhibition of growth at 30 µg/mL (Pseudomonas fluorescens [14]) | MIC (Bacillus subtilis [17]) | inhibition of growth at 30 µg/mL (Staphylococcus aureus [18]) | inhibition of growth at 1 µg/mL (Pseudomonas fluorescens [19]) | MIC (Staphylococcus aureus [20]) | inhibition of growth at 10 µg/mL (Pseudomonas fluorescens [21]) | inhibition of growth at 10 µg/mL (Staphylococcus aureus [22]) | other results |
| --- | --- | --- | --- | --- | --- | --- | --- | --- | --- | --- | --- | --- | --- | --- | --- | --- | --- | --- | --- | --- | --- |
| Cc1nc(-c2ccccc2)oc1-c1csc(-c2ccc(F)c(Cl)c2)n1 | 85.6% | > 100 µM | 34% | 74.3% | 30% | 62% | > 100 µM | > 100 µM | 65% | > 100 µM | 80.8% | 70.9% | 88% | 89.6% | > 100 µM | 88.5% | 69.8% | > 100 µM | 77.1% | 80% | inhibition of growth at 1 µg/mL [12]: 16%; inhibition of growth at 3 µg/mL [15]: 19%; IC50 [16]: > 100 µM; MIC90 [16]: > 100 µM; inhibition of growth at 10 µg/mL [23]: 33%; inhibition of growth at 10 µg/mL [24]: 21% |
| Cc1nc(-c2ccc(F)cc2)oc1-c1csc(-c2ccc(F)c(Cl)c2)n1 | 69.4% | > 100 µM | 29% | 55.9% | 13% | 41.2% | > 100 µM | > 100 µM | 45.7% | > 100 µM | 55.6% | 45.7% | 64.2% | 65.8% | > 100 µM | 63% | 44.3% | > 100 µM | 56.2% | 55.2% | inhibition of growth at 1 µg/mL [12]: 21%; inhibition of growth at 3 µg/mL [15]: 6%; IC50 [16]: > 100 µM; MIC90 [16]: > 100 µM; inhibition of growth at 10 µg/mL [23]: 23%; inhibition of growth at 10 µg/mL [24]: 11% |
| CC1(C)S[C@@H]2[C@H](NC(=O)[C@H](N)c3ccccc3)C(=O)N2[C@H]1C(=O)O [AMPICILLIN] | 96.8% | 4.18 µM (≈ 1.46 µg/mL) | – | 97.9% | – | 90% | – | – | 97.5% | 12.5 µM (≈ 4.36 µg/mL) | 94.5% | 98.2% | 100% | 98.8% | 29.2 µM (≈ 10.2 µg/mL) | 99.4% | 96.4% | 2.86 µM (≈ 0.999 µg/mL) | 97.7% | 98.9% | – |
| Cc1nc(-c2ccc(F)cc2)oc1-c1csc(-c2ccc(F)cc2)n1 | 63.8% | > 100 µM | 20% | 59% | 6% | 40.5% | > 100 µM | > 100 µM | 43.8% | > 100 µM | 55.3% | 43% | 62.5% | 63.4% | > 100 µM | 67% | 40.6% | > 100 µM | 55.3% | 51.4% | inhibition of growth at 1 µg/mL [12]: 3%; IC50 [16]: > 100 µM; MIC90 [16]: > 100 µM; inhibition of growth at 10 µg/mL [23]: 6%; inhibition of growth at 10 µg/mL [24]: 5% |
| Cc1ccc(-c2nc(-c3oc(-c4ccc(F)cc4)nc3C)cs2)cc1 | 22% | > 100 µM | 5% | 10.5% | 5% | 7.61% | > 100 µM | > 100 µM | 6.65% | > 100 µM | 10.7% | 6.75% | 23.7% | 20.6% | > 100 µM | 22.3% | 2.41% | > 100 µM | 10.4% | 12.8% | inhibition of growth at 1 µg/mL [12]: 3%; IC50 [16]: > 100 µM; MIC90 [16]: > 100 µM; inhibition of growth at 10 µg/mL [23]: 5%; inhibition of growth at 10 µg/mL [24]: 3% |
